US11566007B2, “Ras inhibitors” (Revolution Medicines, Inc., priority 2019, dated 2023)
Where “and” joins values, the source holds several entries; their conditions need not be identical. Equal values may be shown once.

Experiments:
[1] = system: NCI-H358 cells (K-Ras G12C); assay: Potency assay: pERK in NCI-H358 cells; type: cell-based, human; details: Homo sapiens, NCI-H358; H358 KRAS G12C; read-out: pERK EC50
In short: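 pERK decrease read by AlphaLISA SureFire p-ERK1/2 or In-Cell Western after 4 h compound exposure at 37 °C, 5% CO2.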

NRAS G12C = NRAS G12C (Homo sapiens (Human), UniProt P01111+P62937, G12C); assay: Ras-Raf (BRAF RBD) disruption / FRET / MOA assay, NRAS G12C; type: biochemical; details: read-out: IC50* NRAS G12C FRET data
Sequence of NRAS G12C (P01111 whole entry G12C): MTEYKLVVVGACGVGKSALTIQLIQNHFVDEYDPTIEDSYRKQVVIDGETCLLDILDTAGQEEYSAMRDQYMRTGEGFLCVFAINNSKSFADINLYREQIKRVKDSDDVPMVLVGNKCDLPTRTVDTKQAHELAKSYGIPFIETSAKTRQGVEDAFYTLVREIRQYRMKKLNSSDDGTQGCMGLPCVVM
Sequence of NRAS G12C (P62937 whole entry): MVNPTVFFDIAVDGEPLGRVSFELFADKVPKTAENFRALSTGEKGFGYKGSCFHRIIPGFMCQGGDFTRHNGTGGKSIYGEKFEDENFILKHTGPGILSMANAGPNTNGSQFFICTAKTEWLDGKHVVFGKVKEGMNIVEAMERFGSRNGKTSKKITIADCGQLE
In short: (§1)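 A 10-point, 3-fold dilution series topping at 30 μM final was incubated 3 h at 25° C with the Ras/cyclophilin A/BRAF RBD mixture.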

KRAS WT = KRAS WT (Homo sapiens (Human), UniProt P01116+P62937); assay: Ras-Raf (BRAF RBD) disruption / FRET / MOA assay, KRAS WT; type: biochemical; details: read-out: IC50* KRAS WT FRET data
Sequence of KRAS WT (P01116-2 other isoform, or with tags, fused parts or gaps): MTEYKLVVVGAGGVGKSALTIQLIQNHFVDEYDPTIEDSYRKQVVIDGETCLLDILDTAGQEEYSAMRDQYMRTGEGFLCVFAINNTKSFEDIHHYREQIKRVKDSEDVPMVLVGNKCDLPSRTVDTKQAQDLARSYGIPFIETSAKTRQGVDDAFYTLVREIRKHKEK
Sequence of KRAS WT (P62937 whole entry): as the sequence (P62937 whole entry) above
In short: as §1

KRAS G12V = KRAS G12V (Homo sapiens (Human), UniProt P01116+P62937, G12V); assay: Ras-Raf (BRAF RBD) disruption / FRET / MOA assay, KRAS G12V; type: biochemical; details: read-out: IC50* KRAS G12V FRET data
Sequence of KRAS G12V (P01116-2 other isoform, or with tags, fused parts or gaps G12V): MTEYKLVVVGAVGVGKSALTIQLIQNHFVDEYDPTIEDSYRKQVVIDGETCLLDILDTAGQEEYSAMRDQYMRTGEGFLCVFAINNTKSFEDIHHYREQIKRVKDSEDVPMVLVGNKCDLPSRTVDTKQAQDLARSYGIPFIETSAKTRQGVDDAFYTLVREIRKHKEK
Sequence of KRAS G12V (P62937 whole entry): as the sequence (P62937 whole entry) above
In short: as §1

NCI-H358 (K-Ras G12C) = assay: CellTiter-Glo cell viability assay, NCI-H358; type: cell-based, human; details: Homo sapiens, NCI-H358, 120 h, NCI-H358, 5-day treatment; class symbols; read-out: Additional H358 Cell Viability assay data (K-Ras G12C, IC50)
In short: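 Cells seeded, compound added directly, 5-day exposure. Plates to RT ~30 min, CellTiter-Glo luminescence read. Normalized to DMSO avg (x100); 4-parameter logistic fit.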

K-Ras G13C = K-Ras G13C (Homo sapiens (Human), UniProt P01116+P62937, G13C); assay: Ras-Raf (BRAF RBD) disruption / FRET / MOA assay, KRAS G13C; type: biochemical; details: KRAS G13C; Ras-Raf disruption/FRET/MOA assay; read-out: IC50* KRAS G13C FRET data
Sequence of K-Ras G13C (P01116-2 other isoform, or with tags, fused parts or gaps G13C): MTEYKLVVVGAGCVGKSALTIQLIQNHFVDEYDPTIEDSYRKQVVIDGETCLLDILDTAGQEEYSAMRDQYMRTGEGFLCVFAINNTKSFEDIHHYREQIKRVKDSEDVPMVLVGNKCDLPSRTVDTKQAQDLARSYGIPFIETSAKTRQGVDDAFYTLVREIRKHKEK
Sequence of K-Ras G13C (P62937 whole entry): as the sequence (P62937 whole entry) above
In short: as §1

K-Ras G12C = K-Ras G12C (Homo sapiens (Human), UniProt P01116+P62937, G12C); assay: Ras-Raf (BRAF RBD) disruption / FRET / MOA assay, KRAS G12C; type: biochemical; details: KRAS G12C; Ras-Raf disruption/FRET/MOA assay; read-out: IC50* KRAS G12C FRET data
Sequence of K-Ras G12C (P01116-2 other isoform, or with tags, fused parts or gaps G12C): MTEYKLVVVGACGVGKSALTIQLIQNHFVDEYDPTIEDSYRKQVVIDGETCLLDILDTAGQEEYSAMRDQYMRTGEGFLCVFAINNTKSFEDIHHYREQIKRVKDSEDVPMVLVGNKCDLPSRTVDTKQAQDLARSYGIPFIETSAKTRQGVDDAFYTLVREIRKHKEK
Sequence of K-Ras G12C (P62937 whole entry): as the sequence (P62937 whole entry) above
In short: as §1

KRAS G12S = KRAS G12S (Homo sapiens (Human), UniProt P01116+P62937, G12S); assay: Ras-Raf (BRAF RBD) disruption / FRET / MOA assay, KRAS G12S; type: biochemical; details: Ras-Raf disruption/FRET/MOA assay; class symbols; read-out: KRAS G12S FRET data IC50
Sequence of KRAS G12S (P01116-2 other isoform, or with tags, fused parts or gaps G12S): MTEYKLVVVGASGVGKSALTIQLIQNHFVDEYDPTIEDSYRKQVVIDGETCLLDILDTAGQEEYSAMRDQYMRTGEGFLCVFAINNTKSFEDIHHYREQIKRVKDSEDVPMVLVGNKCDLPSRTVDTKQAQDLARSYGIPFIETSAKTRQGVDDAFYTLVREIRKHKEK
Sequence of KRAS G12S (P62937 whole entry): as the sequence (P62937 whole entry) above
In short: as §1

KRAS G12D = KRAS G12D (Homo sapiens (Human), UniProt P01116+P62937, G12D); assay: Ras-Raf (BRAF RBD) disruption / FRET / MOA assay, KRAS G12D; type: biochemical; details: Ras-Raf disruption/FRET/MOA assay; class symbols; read-out: KRAS G12D FRET data IC50
Sequence of KRAS G12D (P01116-2 other isoform, or with tags, fused parts or gaps G12D): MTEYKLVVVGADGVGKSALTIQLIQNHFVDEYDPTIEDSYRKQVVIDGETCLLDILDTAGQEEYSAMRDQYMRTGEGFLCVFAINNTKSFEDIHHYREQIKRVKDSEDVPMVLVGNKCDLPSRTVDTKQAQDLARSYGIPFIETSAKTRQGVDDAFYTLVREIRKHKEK
Sequence of KRAS G12D (P62937 whole entry): as the sequence (P62937 whole entry) above
In short: as §1

KRAS G13D = KRAS G13D (Homo sapiens (Human), UniProt P01116+P62937, G13D); assay: Ras-Raf (BRAF RBD) disruption / FRET / MOA assay, KRAS G13D; type: biochemical; details: read-out: IC50* KRAS G13D FRET data
Sequence of KRAS G13D (P01116-2 other isoform, or with tags, fused parts or gaps G13D): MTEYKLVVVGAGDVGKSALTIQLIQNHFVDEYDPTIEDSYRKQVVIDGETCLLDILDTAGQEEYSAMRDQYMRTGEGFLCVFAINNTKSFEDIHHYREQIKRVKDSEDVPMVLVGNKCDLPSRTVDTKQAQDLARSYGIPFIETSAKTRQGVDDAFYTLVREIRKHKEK
Sequence of KRAS G13D (P62937 whole entry): as the sequence (P62937 whole entry) above
In short: as §1

Structure (SMILES)	EC50 [1] [nM]	IC50 (NRAS G12C)	IC50 (KRAS WT)	IC50 (KRAS G12V)	IC50 (NCI-H358 (K-Ras G12C)) [nM]	IC50 (K-Ras G13C)	IC50 (K-Ras G12C)	IC50 (KRAS G12S)	IC50 (KRAS G12D) [nM]	IC50 (KRAS G13D) [nM]
C=CC(=O)N1CC[C@H](C(=O)N(C)c2ccccc2C(=O)N[C@H]2Cc3cc(O)cc(c3)-c3ccc4c(c3)c(c(-c3cnccc3COC)n4CC)CC(C)(C)COC(=O)[C@@H]3CCCN(N3)C2=O)C1 [Example A228]	< 5000	1000 to 10000 nM	> 10000 nM	> 10000 nM	> 1000	> 10000 nM	1000 to 10000 nM	> 10000 nM	> 10000	> 10000
CCn1c(-c2cccnc2[C@H](C)OC)c2c3cc(ccc31)-c1cc(O)cc(c1)C[C@H](NC(=O)[C@H](C(C)C)N(C)C(=O)N1CCCN(C(=O)/C=C/CN(C)C)CC1)C(=O)N1CCC[C@H](N1)C(=O)OCC(C)(C)C2 (atropisomer, axis not shown) [Example A264]	< 5000	10 to 100 nM	10 to 100 nM	10 to 100 nM	10 to 100	10 to 100 nM	10 to 100 nM	10 to 100 nM	10 to 100	10 to 100
CCn1c(-c2cccnc2[C@H](C)OC)c2c3cc(ccc31)-c1cccc(c1)C[C@H](NC(=O)[C@H](C(C)C)N(C)C(=O)[C@H]1CCN(C(=O)C#CC(C)(C)N3CCCC3)C1)C(=O)N1CCC[C@H](N1)C(=O)OCC(C)(C)C2 (atropisomer, axis not shown) [Example A326]	< 5000	< 10 nM	1000 to 10000 nM	1000 to 10000 nM	< 10	1000 to 10000 nM	< 10 nM	1000 to 10000 nM	1000 to 10000	1000 to 10000
C=CS(=O)(=O)N1CC[C@H](C(=O)N(C)[C@H](C(=O)N[C@H]2Cc3cccc(c3)-c3ccc4c(c3)c(c(-c3cccnc3[C@H](C)OC)n4CC)CC(C)(C)COC(=O)[C@@H]3CCCN(N3)C2=O)C(C)C)C1 (atropisomer, axis not shown) [Example A124]	< 5000	10 to 100 nM and 1000 to 10000 nM	1000 to 10000 nM and > 10000 nM	1000 to 10000 nM and > 10000 nM	10 to 100	10 to 100 nM and 1000 to 10000 nM	10 to 100 nM and 1000 to 10000 nM	1000 to 10000 nM and > 10000 nM	> 10000	> 10000
C=CC(=O)N1CCN(C(=O)N(C)[C@H](C(=O)N[C@H]2Cc3nc(cs3)-c3ccc4c(c3)c(c(-c3cccnc3[C@H](C)OC)n4CC)CC(C)(C)COC(=O)[C@@H]3CCCN(N3)C2=O)C(C)C)[C@@H](C)C1 (atropisomer, axis not shown) [Example A421]	< 5000	10 to 100 nM	100 to 1000 nM	100 to 1000 nM	10 to 100	10 to 100 nM	10 to 100 nM	100 to 1000 nM	1000 to 10000	100 to 1000
C=CC(=O)N1C[C@@H]2[C@H](C1)[C@@H]2C(=O)N(C)[C@H](C(=O)N[C@H]1Cc2cc(O)cc(c2)-c2ccc3c(c2)c(c(-c2cccnc2[C@H](C)OC)n3CC)CC(C)(C)COC(=O)[C@@H]2CCCN(N2)C1=O)C(C)C (atropisomer, axis not shown) [Example A319]	< 5000	10 to 100 nM	10 to 100 nM	10 to 100 nM	10 to 100	10 to 100 nM	10 to 100 nM	10 to 100 nM	10 to 100	10 to 100
CCn1c(-c2cccnc2[C@H](C)OC)c2c3cc(ccc31)-c1cc(O)cc(c1)C[C@H](NC(=O)[C@H](C(C)C)N(C)C(=O)[C@H]1CCN(C(=O)C#CCOC)C1)C(=O)N1CCC[C@H](N1)C(=O)OCC(C)(C)C2 [Example A266]	< 5000	< 10 nM	100 to 1000 nM	10 to 100 nM	< 10	10 to 100 nM	< 10 nM	10 to 100 nM	100 to 1000	100 to 1000
C=CC(=O)N1C[C@H](C(=O)N(C)[C@H](C(=O)N[C@H]2Cc3cccc(c3)-c3ccc4c(c3)c(c(-c3cccnc3[C@H](C)OC)n4CC)CC(C)(C)COC(=O)[C@@H]3CCCN(N3)C2=O)C(C)C)[C@H](C(F)(F)F)C1 (atropisomer, axis not shown) [Example A400]	< 5000	10 to 100 nM	> 10000 nM	> 10000 nM	10 to 100	1000 to 10000 nM	10 to 100 nM	> 10000 nM	> 10000	> 10000
CCn1c(-c2cnccc2[C@H](C)OC)c2c3cc(ccc31)-c1cccc(c1)C[C@H](NC(=O)[C@H](C(C)C)N(C)C(=O)[C@H]1CCN(C(=O)C#CCN(C)C)C1)C(=O)N1CCC[C@H](N1)C(=O)OCC(C)(C)C2 [Example A140]	< 5000	< 10 nM	1000 to 10000 nM	1000 to 10000 nM	< 10	10 to 100 nM	< 10 nM	1000 to 10000 nM	1000 to 10000	1000 to 10000
CCn1c(-c2cccnc2[C@H](C)OC)c2c3cc(ccc31)-c1cc(O)cc(c1)C[C@H](NC(=O)[C@H](C(C)C)N(C)C(=O)[C@H]1CCN(C(=O)C#CC(C)(C)N(C)C)C1)C(=O)N1CCC[C@H](N1)C(=O)OCC(C)(C)C2 (atropisomer, axis not shown) [Example A292]	< 5000	< 10 nM	100 to 1000 nM	10 to 100 nM	< 10	< 10 nM	< 10 nM	10 to 100 nM	100 to 1000	100 to 1000
CCn1c(-c2cccnc2COC)c2c3cc(ccc31)-c1cc(O)cc(c1)C[C@H](NC(=O)[C@H](C(C)C)N(C)C(=O)[C@H]1CCN(C(=O)C#CCCN3CCOCC3)C1)C(=O)N1CCC[C@H](N1)C(=O)OCC(C)(C)C2 [Example A129]	< 5000	< 10 nM	1000 to 10000 nM	100 to 1000 nM	10 to 100	100 to 1000 nM	< 10 nM	100 to 1000 nM	1000 to 10000	1000 to 10000
CCn1c(-c2cccnc2[C@H](C)OC)c2c3cc(ccc31)-c1cc(O)cc(c1)C[C@H](NC(=O)[C@H](C(C)C)N(C)C(=O)C1CN(C(=O)/C=C/CN(C)C)C1)C(=O)N1CCC[C@H](N1)C(=O)OCC(C)(C)C2 (atropisomer, axis not shown) [Example A257]	< 5000	< 10 nM	100 to 1000 nM	100 to 1000 nM	10 to 100	10 to 100 nM	< 10 nM	100 to 1000 nM	100 to 1000	100 to 1000
CCn1c(-c2cccnc2COC)c2c3cc(ccc31)-c1cc(C)cc(c1)C[C@H](NC(=O)[C@H](C(C)C)N(C)C(=O)[C@H]1CCN(C(=O)C#CCN(C)C)C1)C(=O)N1CCC[C@H](N1)C(=O)OCC(C)(C)C2 [Example A156]	< 5000	100 to 1000 nM	> 10000 nM	> 10000 nM	10 to 100	1000 to 10000 nM	10 to 100 nM	> 10000 nM	1000 to 10000	1000 to 10000
C=CC(=O)N1CCN(C(=O)N(C)[C@H](C(=O)N[C@H]2Cc3nc(cs3)-c3ccc4c(c3)c(c(-c3cccnc3[C@H](C)OC)n4CC)CC(C)(C)COC(=O)[C@@H]3CCCN(N3)C2=O)C(C)C)C2(CC2)C1 (atropisomer, axis not shown) [Example A395]	< 5000	100 to 1000 nM	100 to 1000 nM	100 to 1000 nM	< 10	100 to 1000 nM	100 to 1000 nM	100 to 1000 nM	1000 to 10000	100 to 1000
CCn1c(-c2cccnc2[C@H](C)OC)c2c3cc(ccc31)-c1cccc(c1)C[C@H](NC(=O)[C@H](C(C)C)N(C)C(=O)[C@H]1CCN(C(=O)C#C[C@@H]3COCCN3C)C1)C(=O)N1CCC[C@H](N1)C(=O)OCC(C)(C)C2 [Example A528]	< 5000	10 to 100 nM	1000 to 10000 nM	1000 to 10000 nM	< 10	1000 to 10000 nM	10 to 100 nM	1000 to 10000 nM	> 10000	> 10000
